Legend:
eosinophils = assay: Phase 2 CSU study: immune cell phenotyping, eosinophil levels; type: in vivo, human; settings: for Eosinophils (10^9/L) Median Percent Change from Baseline: Baseline to Week 12
Text: Collection of biological samples for other biomarker research was also part of this study. The following samples for biomarker research were required and were to be collected from all participants in this study: • Serum and plasma samples for soluble biomarkers and cellular tests. Analytes included IgG anti-IgE, IgG anti-FcεRI, IgG anti-TPO, IgE anti-TPO, IL-31, and sMRGPRX2. • Blood samples for immune cell phenotyping, including measurement of eosinophil levels • Blood samples for BTK occupancy in peripheral blood mononuclear cells (PBMCs) at selected sites

rat Arthus reaction = settings: cited from earlier work

CC(C)(C=C(C#N)C(=O)N1CCC[C@@H](n2nc(-c3ccc(Oc4ccccc4)cc3F)c3c(N)ncnc32)C1)N1CCN(C2COC2)CC1 [rilzabrutinib, (R)-2-[3-[4-amino-3-(2-fluoro-4-phenoxy-phenyl)pyrazolo[3,4-d]pyrimidin-1-yl]piperidine-1-carbonyl]-4-methyl-4-[4-(oxetan-3-yl)piperazin-1-yl]pent-2-enenitrile]
reduction in eosinophil levels (eosinophils; 400 mg TID, Week 12): 29.0% | Eosinophils (10^9/L) Median Percent Change from Baseline (eosinophils; 400 mg BID): −11.8% | Eosinophils (10^9/L) Median Percent Change from Baseline (eosinophils; 400 mg QPM): 7.7% | Eosinophils (10^9/L) Median Percent Change from Baseline (eosinophils; 400 mg TID): −29.0% | rat Arthus reaction (rat Arthus reaction): blockade

Source: patent publication US20260256792A1, “TREATMENT OF CHRONIC SPONTANEOUS URTICARIA BY ADMINISTERING (R)-2-[3-[4-AMINO-3-(2-FLUORO-4-PHENOXY-PHENYL)PYRAZOLO[3,4-D]PYRIMIDIN-1-YL]PIPERIDINE-1-CARBONYL]-4-METHYL-4-[4-(OXETAN-3-YL)PIPERAZIN-1-YL]PENT-2-ENENITRILE” (priority 2023, published 2026)
